Columns and labels:
GCT cells = assay: Flow cytometry cell cycle (PI), GCT cells; assay type: cell-based, Human; conditions: EC50, 16 h
Protocol: (§1) For Annexin V/PI staining, cells were washed with Annexin V Binding Buffer before being resuspended in 70 µl Annexin V Binding Buffer and 2.5 μl Annexin V FITC-conjugate (both Miltenyi Biotec, Bergisch Gladbach, Germany) and 15 µg PI (Sigma-Aldrich, Taufkirchen, Germany) and incubated in the dark at room temperature for 15 min. 500 µl of Annexin V Binding Buffer was added before measurement. For the cell cycle analysis, cells were washed with PBS (phosphate buffered saline), fixed by ice cold 70% ethanol and stained with 2 µg/ml PI and 200 µg/ml RNaseA (Quiagen, Hilden, Germany 100 mg/ml) in PBS shortly before every measurement. At least 5 × 10^4 cells were counted and analyzed using the MACSQuant software v 2.13.0.

2102EP-R = assay: Flow cytometry apoptosis (Annexin V/PI), 2102EP-R; assay type: cell-based, Human; conditions: EC50, 16 h, compared to the parental cell line
[1] = system: histone modifications in 2102EP cells; assay: Mass spectrometry analysis of histone modifications (Mod Spec); assay type: cell-based, Human
Protocol: 2102EP cells were treated with the EC50 concentrations for Quisinostat, JIB-04, Chaetocin, MZ-1, LP99, PRT4165, GSK343 and DMSO as solvent control. The cells were harvested via trypsinization after 16 h. The mass spectrometric analysis of histone modifications was outsourced to the Mod Spec service by Active Motif (Carlsbad, CA, USA). Histone extraction and mass spectrometric analysis was performed as described previously. Raw data were transformed into z-scores as the input. The heatmap was generated in R using ‘pheatmap’ with default settings and provided by Active Motif.

[2] = system: phosphorylated kinase targets in 2102EP cells; assay: Proteome Profiler Human Phospho-Kinase Array; assay type: cell-based; conditions: 16 h
Protocol: For the detection of phosphorylated kinase targets, the Proteome Profiler Human Phospho-Kinase Array Kit (R&D Systems, Abingdon, UK) was used according to the manufacturer’s instructions. The ChemiDoc Imaging System (Bio-Rad Laboratories, Feldkirchen, Germany) was used for detection. 2102EP cells were harvested after 16 h of treatment with the epi-drugs. Pixel density was analyzed using Fiji ImageJ 1.53c.

CC (JAR) = assay: Flow cytometry apoptosis (Annexin V/PI), CC; assay type: cell-based, Human; conditions: EC50, 16 h
Protocol: as §1

YST (GCT72) = assay: Flow cytometry apoptosis (Annexin V/PI), YST; assay type: cell-based, Human; conditions: EC50, 16 h
Protocol: as §1

GCT cell lines = assay: XTT cell viability assay, GCT cell lines (pre-screen / summary); assay type: cell-based, Human; conditions: first pre-screen, XTT; read-out: EC50
Protocol: The […] (XTT) assays were performed as described previously. In summary, for GCT and fibroblast cell lines 5 × 10^3 cells (3 × 10^3 for UC, PCa and RCC cell lines) per 96-well were seeded and different drug concentrations (see Additional file 2: Fig. S2, Additional file 3: Fig. S3) or corresponding solvents were added to the cells the following day. For drug details see Additional file 12: Table S2 C. Each condition was analyzed in four technical replicates and EC50 values were calculated by GraphPad Prism v8.

[3] = system: transcriptome of 2102EP cells; assay: RNA sequencing; assay type: cell-based, Human; conditions: 16 h
Protocol: Transcriptome analysis has been performed as previously described at the core facility ‘Genomics & Transcriptomics’ (Prof. Dr. Karl Köhrer, Biomedical Research Center, Heinrich Heine University, Düsseldorf, Germany) and has been publicly shared via GEO (https://www.ncbi.nlm.nih.gov/geo/, GSE189472). RNA samples were quantified and measured as previously described. Statistical analyses were performed using the ‘Differential Expression in two groups’ tool (version 1.02) (Qiagen) and the resulting p values were corrected for multiple testing by false discovery rate (FDR). Accompanying PCA and heatmap were generated using Qlucore Omics Explorer 3.7 (Qlucore AB, Lund, Sweden). Values of solvent controls wereaveraged from the studies GSE189472, GSE190792 and GSE190022 [95].

[4] = 2102EP cells, Mod Spec raw data
[5] = sorted data log2>±1.5, FDR p<0.05

SMILES: Cc1cc(=O)n(C)c2cc(N3C(=O)CC[C@H](NS(=O)(=O)CC(C)C)[C@H]3c3ccc(Cl)cc3)ccc12 [LP99]
- cell cycle phase accumulation in GCT cells (GCT cells): accumulated in the G0/G1 phase
- apoptosis induction in 2102EP-R (2102EP-R): did not induce apoptosis
- H1.4: K25AC, % of peptide pool [1, 4]: 0.009028%
- H1.4: K25ME1, % of peptide pool [1, 4]: 2.269%
- H1.4: K25ME2, % of peptide pool [1, 4]: 0.02267%
- H1.4: K25ME3, % of peptide pool [1, 4]: 0.00557%
- H1.4: K25UN, % of peptide pool [1, 4]: 97.6933%
- H2A1: K13AC, % of peptide pool [1, 4]: 0.01093%
- H2A1: K13UN, % of peptide pool [1, 4]: 99.9891%
- H2A1: K15AC, % of peptide pool [1, 4]: 0.001748%
- H2A1: K15UB, % of peptide pool [1, 4]: 0%
- H2A1: K15UN, % of peptide pool [1, 4]: 99.9983%
- H2A3: K13AC, % of peptide pool [1, 4]: 0.03196%
- H2A3: K13UN, % of peptide pool [1, 4]: 99.968%
- H2A3: K15AC, % of peptide pool [1, 4]: 0.03362%
- H2A3: K15UB, % of peptide pool [1, 4]: 0%
- H2A3: K15UN, % of peptide pool [1, 4]: 99.9664%
- H2A: K5AC, % of peptide pool [1, 4]: 12.5375%
- H2A: K5UN, % of peptide pool [1, 4]: 87.4625%
- H2A: K9AC, % of peptide pool [1, 4]: 1.353%
- H2A: K9UN, % of peptide pool [1, 4]: 98.6475%
- H2A: K36AC, % of peptide pool [1, 4]: 0.0347%
- H2A: K36UN, % of peptide pool [1, 4]: 99.9653%
- H3: K9AC, % of peptide pool [1, 4]: 0.6876%
- H3: K9ME1, % of peptide pool [1, 4]: 38.1257%
- H3: K9ME2, % of peptide pool [1, 4]: 23.7135%
- H3: K9ME3, % of peptide pool [1, 4]: 2.367%
- H3: K9UN, % of peptide pool [1, 4]: 35.1066%
- H3: K14AC, % of peptide pool [1, 4]: 29.2531%
- H3: K14UN, % of peptide pool [1, 4]: 70.7469%
- H3: K18AC, % of peptide pool [1, 4]: 10.1375%
- H3: K18ME1, % of peptide pool [1, 4]: 0.2014%
- H3: K18UN, % of peptide pool [1, 4]: 89.6611%
- H3: K23AC, % of peptide pool [1, 4]: 16.6835%
- H3: K23ME1, % of peptide pool [1, 4]: 0.02213%
- H3: K23UN, % of peptide pool [1, 4]: 83.2943%
- H3: K56AC, % of peptide pool [1, 4]: 0.1265%
- H3: K56ME1, % of peptide pool [1, 4]: 0.3038%
- H3: K56UN, % of peptide pool [1, 4]: 99.5697%
- H3: K64AC, % of peptide pool [1, 4]: 0.01464%
- H3: K64UN, % of peptide pool [1, 4]: 99.9854%
- H3: K79AC, % of peptide pool [1, 4]: 0.6828%
- H3: K79ME1, % of peptide pool [1, 4]: 14.7289%
- H3: K79ME2, % of peptide pool [1, 4]: 6.113%
- H3: K79ME3, % of peptide pool [1, 4]: 8.372%
- H3: K79UN, % of peptide pool [1, 4]: 70.1029%
- H3: K122AC, % of peptide pool [1, 4]: 0.1106%
- H3: K122UN, % of peptide pool [1, 4]: 99.8894%
- H3: Q19ME1, % of peptide pool [1, 4]: 0.008159%
- H3: Q19UN, % of peptide pool [1, 4]: 99.9918%
- H3: Q55ME1, % of peptide pool [1, 4]: 0.125%
- H3: Q55UN, % of peptide pool [1, 4]: 99.875%
- H3: R42ME2, % of peptide pool [1, 4]: 2.022%
- H3: R42UN, % of peptide pool [1, 4]: 97.9783%
- H3: R49ME2, % of peptide pool [1, 4]: 5.836%
- H3: R49UN, % of peptide pool [1, 4]: 94.1642%
- H3R2UN: K4AC, % of peptide pool [1, 4]: 0.0493%
- H3R2UN: K4ME1, % of peptide pool [1, 4]: 17.3555%
- H3R2UN: K4ME2, % of peptide pool [1, 4]: 0.1607%
- H3R2UN: K4ME3, % of peptide pool [1, 4]: 0.06122%
- H3R2UN: K4UN, % of peptide pool [1, 4]: 82.3733%
- H3R2UN: Q5ME1, % of peptide pool [1, 4]: 0.0589%
- H3R2UN: Q5UN, % of peptide pool [1, 4]: 99.9411%
- H3.1: K27AC, % of peptide pool [1, 4]: 1.848%
- H3.1: K27ME1, % of peptide pool [1, 4]: 50.2872%
- H3.1: K27ME2, % of peptide pool [1, 4]: 19.0002%
- H3.1: K27ME3, % of peptide pool [1, 4]: 2.587%
- H3.1: K27UN, % of peptide pool [1, 4]: 26.2781%
- H3.1: K36AC, % of peptide pool [1, 4]: 0.1934%
- H3.1: K36ME1, % of peptide pool [1, 4]: 15.1441%
- H3.1: K36ME2, % of peptide pool [1, 4]: 47.7578%
- H3.1: K36ME3, % of peptide pool [1, 4]: 20.1942%
- H3.1: K36UN, % of peptide pool [1, 4]: 16.7105%
- H3.3: K27AC, % of peptide pool [1, 4]: 4.526%
- H3.3: K27M, % of peptide pool [1, 4]: 0%
- H3.3: K27ME1, % of peptide pool [1, 4]: 50.6483%
- H3.3: K27ME2, % of peptide pool [1, 4]: 13.3962%
- H3.3: K27ME3, % of peptide pool [1, 4]: 4.205%
- H3.3: K27UN, % of peptide pool [1, 4]: 27.2241%
- H3.3: K36AC, % of peptide pool [1, 4]: 1.988%
- H3.3: K36ME1, % of peptide pool [1, 4]: 13.5047%
- H3.3: K36ME2, % of peptide pool [1, 4]: 50.9616%
- H3.3: K36ME3, % of peptide pool [1, 4]: 19.8606%
- H3.3: K36UN, % of peptide pool [1, 4]: 13.6847%
- H4: K5AC, % of peptide pool [1, 4]: 6.718%
- H4: K5UN, % of peptide pool [1, 4]: 93.2819%
- H4: K8AC, % of peptide pool [1, 4]: 9.0591%
- H4: K8UN, % of peptide pool [1, 4]: 90.9409%
- H4: K12AC, % of peptide pool ([1]; 2102EP cells, Mod Spec raw data, histone H4 K12 acetylated): 5.085 % of peptide pool
- H4: K12UN, % of peptide pool ([1]; 2102EP cells, Mod Spec raw data, histone H4 K12 unmodified): 94.9152 % of peptide pool
- H4: K16AC, % of peptide pool ([1]; 2102EP cells, Mod Spec raw data, histone H4 K16 acetylated): 42.3745 % of peptide pool
- H4: K16UN, % of peptide pool ([1]; 2102EP cells, Mod Spec raw data, histone H4 K16 unmodified): 57.6255 % of peptide pool
- H4: K20AC, % of peptide pool ([1]; 2102EP cells, Mod Spec raw data, histone H4 K20 acetylated): 21.754 % of peptide pool
- H4: K20ME2, % of peptide pool ([1]; 2102EP cells, Mod Spec raw data, histone H4 K20 dimethylated): 43.6517 % of peptide pool
- H4: K20ME1, % of peptide pool ([1]; 2102EP cells, Mod Spec raw data, histone H4 K20 monomethylated): 4.449 % of peptide pool
- H4: K20ME3, % of peptide pool ([1]; 2102EP cells, Mod Spec raw data, histone H4 K20 trimethylated): 1.292 % of peptide pool
- H4: K20UN, % of peptide pool ([1]; 2102EP cells, Mod Spec raw data, histone H4 K20 unmodified): 28.8535 % of peptide pool
- change of histone modifications of the expected mode of action (Mod Spec) ([1]; 2102EP, EC50, 16 h, vs solvent control): general decrease in histone acetylation
- CREB, STAT3 and STAT5 phosphorylation and total levels of β-Catenin and HSP60 [2]: decreased
- ERK1/2 phosphorylation [2]: decreased
- apoptosis induction in JAR (CC (JAR)): negligible
- apoptosis induction in GCT72 (YST (GCT72)): negligible
- EC50 (GCT cell lines): ≤ 50 µM
- GJD3 Log2 fold change vs. DMSO [3, 5]: 3.31
- GLIPR1L1 Log2 fold change vs. DMSO [3, 5]: -3.59
- GOLGA6A Log2 fold change vs. DMSO [3, 5]: -4.35
- MTRNR2L8 Log2 fold change vs. DMSO [3, 5]: 3.16
- NCKAP1L Log2 fold change vs. DMSO [3, 5]: -3.90
- TAC1 Log2 fold change vs. DMSO [3, 5]: 3.33
- A1BG Log2 fold change vs. DMSO ([3]; unsorted data): 0.41
- A1CF Log2 fold change vs. DMSO ([3]; unsorted data): 1.13
- A2M Log2 fold change vs. DMSO ([3]; unsorted data): -0.80

Source: article PMC8742467, “Therapeutical interference with the epigenetic landscape of germ cell tumors: a comparative drug study and new mechanistical insights” (Clinical Epigenetics, 2022)
